Assay results taken from patent US9642847B2, “Combinational compositions and methods for treatment of cancer” (ArQule, Inc., priority 2009, dated 2017).
“And” between values parts separate entries of the source, which are not always exact repeats. Equal values may be shown once. Read-outs that look alike come from different tables or passages of the source. Each block holds one compound with its values, some of them ahead of it.

Legend:
[1] = tested on: NCI-H441 NSCLC human tumor xenograft; assay: NCI-H441 human lung tumor xenograft model; format: in vivo; conditions: for BW loss: on day 4
Protocol: Erlotinib was administered daily at 100 mg/kg or 50 mg/kg orally, five days a week for four weeks.
Gefitinib was administered daily at 50 mg/kg orally, five days a week for four weeks.

[2] = tested on: MIA PaCa-2 pancreatic tumor cells; assay: 72 h MTT proliferation assay, equipotent fixed-ratio combination, isobologram analysis (Calcusyn)
Protocol: (§2) Cell culture and reagents: NCI-H441, PC-3, MIA PaCa-2, HeLa, HT-29 and A549 cancer cell lines (American Type Culture Collection) were cultured in Dulbecco's modified Eagle's medium containing 10% fetal bovine serum, 100 units/mL penicillin, 100 g/mL streptomycin, and 2 mM L-glutamine.
(§3) Duplicate independent experiments were performed for each cell line/drug combination. Data were then analyzed by Calcusyn™ (Biosoft, Cambridge, UK) data analysis software.
(§4) Cell survival analysis. In some experiments, cell survival was determined by the 3-(4,5-dimethylthiazol-2-yl)-2,5-diphenyl tetrazolium bromide (MTT) assay. Briefly, cells were plated in a 96-well plate at 5-10,000 cells per well, cultured for 24 hours in complete growth medium, and then treated with various drugs and drug combinations for 72 hours. […] Data were normalized to untreated controls and analyzed with Microsoft Excel.
(§5) Median effect plots and isobolograms were performed for each experiment.

[3] = tested on: Hsc-39 human gastric tumor xenograft; assay: Hsc-39 human gastric tumor xenograft model; format: in vivo
Protocol: (§6) Specifically, gastric cancer cell lines MKN-45 and Hsc-39 were tested.

DU-145 = assay: 72 hr MTS assay, combination index by CalcuSyn; format: cell-based, human; conditions: DU-145 (Prostate), chemotherapeutic agent combined with Agent A
22RV1 = assay: 72 hr MTS assay, combination index by CalcuSyn; format: cell-based, human; conditions: 22RV1 (Prostate), chemotherapeutic agent combined with Agent A
PC-3 cells = assay: 72 h MTT proliferation assay, equipotent fixed-ratio combination, isobologram analysis (Calcusyn)
Protocol: as §2, §3, §4, §5

[4] = tested on: MKN-45 human gastric tumor xenograft; assay: MKN-45 human gastric tumor xenograft model (Example 88)
Protocol: as §6

[5] = tested on: MKN-45 human gastric tumor xenograft; format: in vivo; conditions: for BW loss: on day 21
Protocol: 5-FU was administered daily at 10 mg/kg intravenously, five days a week for two weeks. TS-1 was administered daily at 10 mg/kg orally, five days a week for two weeks. Capecitabine was administered daily at 360 mg/kg orally, five days a week for two weeks. CDDP was administered weekly at 5 mg/kg intravenously for two weeks.

HPAF-II = assay: 72 hr MTS cytotoxicity assay, combination with gemcitabine; format: cell-based, human; conditions: HPAF-II (Pancreatic), chemotherapeutic agent combined with Agent A
Protocol: (§7) MIA PaCa-2 (also referred to as PACA2), PANC-1, CFPAC-1, and Hs766T human pancreatic cell lines were maintained in DMEM supplemented with 10% fetal bovine serum (FBS), penicillin, streptomycin, and fungizone. AsPC-1 cells were maintained in RPMI supplemented with 10% FBS, penicillin, streptomycin, and fungizone. HPAF-II cells were maintained in MEM supplemented with 10% FBS, penicillin, streptomycin, and fungizone. […] MTS reagent (Promega, Madison, Wis.) was added to each well and plates were incubated for 4 hr at 37° C.

AsPC-1 = assay: as above; format: cell-based, human; conditions: AsPC-1 (Pancreatic), chemotherapeutic agent combined with Agent A
Protocol: as §7

PANC-1 = assay: as above; format: cell-based, human; conditions: PANC-1 (Pancreatic), chemotherapeutic agent combined with Agent A
Protocol: as §7

c-Met [6] = target: T1, c-Met (Homo sapiens, UniProt P08581); assay: c-Met biochemical assays
T1 sequence (P08581 25-1390): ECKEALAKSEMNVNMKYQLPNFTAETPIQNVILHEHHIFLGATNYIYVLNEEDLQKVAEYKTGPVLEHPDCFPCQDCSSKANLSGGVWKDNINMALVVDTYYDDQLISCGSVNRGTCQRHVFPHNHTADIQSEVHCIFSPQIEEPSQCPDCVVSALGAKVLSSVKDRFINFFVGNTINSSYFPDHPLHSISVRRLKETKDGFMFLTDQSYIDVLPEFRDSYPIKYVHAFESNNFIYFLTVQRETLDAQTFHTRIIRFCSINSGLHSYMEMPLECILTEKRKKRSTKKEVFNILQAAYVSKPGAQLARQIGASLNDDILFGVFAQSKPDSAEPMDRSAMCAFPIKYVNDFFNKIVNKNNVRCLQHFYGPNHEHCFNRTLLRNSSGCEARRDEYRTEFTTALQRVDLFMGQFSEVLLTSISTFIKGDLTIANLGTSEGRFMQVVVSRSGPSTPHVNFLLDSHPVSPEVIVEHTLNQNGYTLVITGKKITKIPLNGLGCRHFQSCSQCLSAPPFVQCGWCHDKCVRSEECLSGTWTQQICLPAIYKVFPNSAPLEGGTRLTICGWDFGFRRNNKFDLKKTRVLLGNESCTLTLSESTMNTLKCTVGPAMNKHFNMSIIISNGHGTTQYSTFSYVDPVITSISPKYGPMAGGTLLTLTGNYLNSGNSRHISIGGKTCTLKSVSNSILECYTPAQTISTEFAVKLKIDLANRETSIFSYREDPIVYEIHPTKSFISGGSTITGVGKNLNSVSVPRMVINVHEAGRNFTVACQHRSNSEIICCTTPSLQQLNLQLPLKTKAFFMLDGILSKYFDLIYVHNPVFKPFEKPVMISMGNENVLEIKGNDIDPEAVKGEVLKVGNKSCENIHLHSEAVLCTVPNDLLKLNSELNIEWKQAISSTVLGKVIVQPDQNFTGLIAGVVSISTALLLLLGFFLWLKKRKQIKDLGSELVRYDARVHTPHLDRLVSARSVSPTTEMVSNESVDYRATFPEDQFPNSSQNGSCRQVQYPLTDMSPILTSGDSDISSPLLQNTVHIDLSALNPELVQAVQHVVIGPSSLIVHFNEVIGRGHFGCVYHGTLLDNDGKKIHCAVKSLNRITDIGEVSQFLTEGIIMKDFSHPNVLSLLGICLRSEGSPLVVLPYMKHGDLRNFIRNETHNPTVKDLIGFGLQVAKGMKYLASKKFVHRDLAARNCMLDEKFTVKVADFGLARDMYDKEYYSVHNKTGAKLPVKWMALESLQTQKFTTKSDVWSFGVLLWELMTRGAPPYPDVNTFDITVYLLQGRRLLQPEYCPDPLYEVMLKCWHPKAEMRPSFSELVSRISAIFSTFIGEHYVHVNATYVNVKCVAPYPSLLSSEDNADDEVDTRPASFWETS

HT29 colon cancer cells = assay: 72 h MTT proliferation assay, equipotent fixed-ratio combination, isobologram analysis (Calcusyn); format: cell-based; conditions: Homo sapiens
Description: (§1) Erlotinib is an inhibitor of the epidermal growth factor receptor and is indicated for the treatment of patients with locally advanced or metastatic non-small cell lung cancer after failure of at least one prior chemotherapy regimen, and is indicated for the first-line treatment of patients with locally advanced, unresectable or metastatic pancreatic cancer.
Gefitinib is an inhibitor of the EGF receptor.

[7] = tested on: NCI-H441 non-small cell lung cancer cells; assay: as above; format: cell-based, human
Description: as §1

c-Met [8] = target: T1, c-Met; assay: c-Met cell-based assays; conditions: a number of cell-based assays
[9] = tested on: subcutaneous NCI-H522 NSCLC tumors; conditions: for tolerability: mouse, in vivo, po
Protocol: All regimens were orally administered once daily for 21 days. Tumor sizes were evaluated periodically during treatment at the indicated days post-inoculation.

[10] = Gefitinib 50 mg/kg p.o. qd × 5 × 4
[11] = Homo sapiens, MIA PaCa-2, read-out: IC50, predicted, MIA PaCa-2 cells, predicted value used to set the ratio
[12] = Homo sapiens, PC-3, 72 h, PC-3, 72 h, single agents and fixed-ratio combination
[13] = Homo sapiens, PC-3, read-out: IC50, predicted, PC-3 cells, predicted value used to set the ratio
[14] = Agent A 300 mg/kg p.o. qd × 5 × 2, on day 10
[15] = Homo sapiens, NCI-H441, NCI-H441 NSCLC cells, predicted value used to set the ratio, read-out: IC50, predicted
[16] = Agent A 300 mg/kg p.o. qd × 5 × 2
[17] = Capecitabine 360 mg/kg p.o. qd × 5 × 2
[18] = Erlotinib 50 mg/kg p.o. qd × 5 × 4
[19] = Erlotinib 100 mg/kg p.o. qd × 5 × 4

SMILES: COc1cc2ncnc(Nc3ccc(F)c(Cl)c3)c2cc1OCCCN1CCOCC1 [Gefitinib, gefitinib]
- Mortality [1, 10]: 0/5
- BW loss [1, 10]: −0.5 (4) g
- T/C Min ([1]; Gefitinib 50 mg/kg p.o. qd × 5 × 4, on day 21): 0.60 (21)

- melting point: 208 to 210 °C
SMILES: O=C1NC(=O)[C@@H](c2cn3c4c(cccc24)CCC3)[C@@H]1c1ccc(F)cc1 (racemic) [Example 70, (±)-Trans-3-(5,6-dihydro-4H-pyrrolo[3,2,1-ij]quinolin-1-yl)-4-(4-fluorophenyl)pyrrolidine-2,5-dione]

SMILES: CC(=O)O[C@@]12CO[C@@H]1C[C@H](O)[C@@]1(C)C(=O)[C@H](O)C3=C(C)[C@@H](OC(=O)[C@H](O)[C@@H](NC(=O)OC(C)(C)C)c4ccccc4)C[C@@](O)([C@@H](OC(=O)c4ccccc4)[C@H]21)C3(C)C [Docetaxel, docetaxel]
- IC50 ([2]; Homo sapiens, MIA PaCa-2, 72 h, MIA PaCa-2, 72 h, single agents and fixed-ratio combination): 5.1 nM
- IC50 [2, 11]: ~5 nM
- T/C Min ([3]; Docetaxel 7.5 mg/kg i.v. single, on day 17): 0.46 (17)
- T/C Min ([3]; Docetaxel 15 mg/kg i.v. single, on day 17): 0.40 (17)
- Combination Conclusion (DU-145): Synergism
- Combination Index Values at ED50 (DU-145): 0.7
- Combination Conclusion (22RV1): Synergism
- Combination Index Values at ED50 (22RV1): 0.7
- IC50 (PC-3 cells; [12]): 6 nM
- IC50 (PC-3 cells; [13]): ~5 nM
- IC50 (PC-3 cells; PC-3, 72 h, single agents and fixed-ratio combination, listed as Taxotere): 3.5 nM
- Mortality ([4]; Docetaxel 7.5 mg/kg i.v. single): 0/5
- T/C Min ([4]; Docetaxel 7.5 mg/kg i.v. single, on day 15): 0.63 (15)
- Mortality ([4]; Docetaxel 15 mg/kg i.v. single): 0/5
- T/C Min ([4]; Docetaxel 15 mg/kg i.v. single, on day 7): 0.68 (7)

- melting point: 234 to 235 °C
SMILES: O=C1NC(=O)C(c2cn3c4c(cccc24)CCC3)=C1c1ccc(F)cc1 [Example 67, 3-(5,6-dihydro-4H-pyrrolo[3,2,1-ij]quinolin-1-yl)-4-(4-fluorophenyl)-1H-pyrrole-2,5-dione]

SMILES: N.N.[Cl][Pt][Cl] [Cisplatin, cisplatin]
- IC50 ([2]; MIA PaCa-2, 72 h, single agents and fixed-ratio combination): 3370 nM and 3790 nM
- Mortality ([5]; Cisplatin 5 mg/kg i.v. Weekly × 2): 0/5
- T/C Min ([5]; Cisplatin 5 mg/kg i.v. Weekly × 2, on day 10): 0.55 (10)

- melting point: 87 to 91 °C
SMILES: COc1cccc([C@@H]2C(=O)NC(=O)[C@H]2c2cn3c4c(cccc24)CCC3)c1 (racemic) [Example 68, (±)-Trans-3-(5,6-dihydro-4H-pyrrolo[3,2,1-ij]quinolin-1-yl)-4-(3-methoxyphenyl)pyrrolidine-2,5-dione]

- melting point: 262 to 265 °C
SMILES: O=C1NC(=O)C(c2cn3c4c(cccc24)CCC3)=C1c1ccc(OCc2ccccc2)cc1 [Example 66, 3-[4-(benzyloxy)phenyl]-4-(5,6-dihydro-4H-pyrrolo[3,2,1-ij]quinolin-1-yl)-1H-pyrrole-2,5-dione]

SMILES: O=c1[nH]cc(F)c(=O)[nH]1 [Example 5-FU, fluorouracil]
- Mortality ([5]; 5-FU 10 mg/kg i.v. qd × 5 × 2): 0/5
- T/C Min ([5]; 5-FU 10 mg/kg i.v. qd × 5 × 2, on day 14): 0.63 (14)
- BW loss ([5]; 5-FU 10 mg/kg i.v. qd × 5 × 2): −3.4 (21) g

SMILES: Nc1ccn([C@@H]2O[C@H](CO)[C@@H](O)C2(F)F)c(=O)n1 [Gemcitabine, gemcitabine]
- Combination Conclusion (HPAF-II): Synergism
- Combination Index Values at ED50 (HPAF-II): 0.2
- Combination Conclusion (AsPC-1): Synergism
- Combination Index Values at ED50 (AsPC-1): 0.6
- Combination Conclusion (PANC-1): Synergism
- Combination Index Values at ED50 (PANC-1): 0.7

SMILES: O=C1NC(=O)[C@@H](c2cn3c4c(cccc24)CCC3)[C@@H]1c1c[nH]c2ccccc12 (single isomer, unassigned) [Agent A]
- IC50 [2, 11]: 150 nM
- c-Met activity (c-Met [6]): inhibit c-Met activity
- Mortality ([1]; Agent A 300 mg/kg p.o. qd × 5 × 4): 0/5
- T/C Min ([1]; Agent A 300 mg/kg p.o. qd × 5 × 4, on day 17): 0.52 (17)
- T/C Min [3, 14]: 0.63 (10)
- IC50 (HT29 colon cancer cells; HT-29, 72 h, HT29, 72 h, single agents and fixed-ratio combination, read-out: IC50): 179 nM
- IC50 (HT29 colon cancer cells; HT-29, HT29 cells, predicted value used to set the ratio, read-out: IC50, predicted): 150 nM
- IC50 [7, 15]: 300 nM
- c-Met activity (c-Met [8]): inhibit c-Met activity
- tolerability [9]: well-tolerated
- effects on body weight gain ([9]; oral gavage once daily for 21 days, all cohorts): no adverse effects on body weight gain
- IC50 (PC-3 cells; [12]): 875 nM
- IC50 (PC-3 cells; [13]): 1000 nM
- IC50 (PC-3 cells; PC-3, 72 h, single agents and fixed-ratio combination): 553 nM
- Mortality [5, 16]: 0/5
- T/C Min ([5]; Agent A 300 mg/kg p.o. qd × 5 × 2, on day 4): 0.50 (4)
- BW loss [5, 16]: −1.7 (21) g
- Mortality [4, 16]: 0/5
- BW loss [4, 14]: −1.3 (10) g
- T/C Min ([4]; Agent A 300 mg/kg p.o. qd × 5 × 2, on day 15): 0.61 (15)

- melting point: 105 to 107 °C
SMILES: O=C1NC(=O)[C@@H](c2cn3c4c(cccc24)CCC3)[C@@H]1c1ccc(O)cc1 (racemic) [Example 72, (±)-Trans-3-(5,6-dihydro-4H-pyrrolo[3,2,1-ij]quinolin-1-yl)-4-(4-hydroxyphenyl)pyrrolidine-2,5-dione]

SMILES: CNC(=O)c1cc(Oc2ccc(NC(=O)Nc3ccc(Cl)c(C(F)(F)F)c3)cc2)ccn1 [sorafenib]
- tolerability [9]: well-tolerated

SMILES: CCCCCOC(=O)Nc1nc(=O)n([C@@H]2O[C@H](C)[C@@H](O)[C@H]2O)cc1F [Capecitabine, capecitabine]
- Mortality [5, 17]: 0/5
- T/C Min ([5]; Capecitabine 360 mg/kg p.o. qd × 5 × 2, on day 14): 0.42 (14)
- BW loss [5, 17]: −1.4 (21) g

SMILES: C#Cc1cccc(Nc2ncnc3cc(OCCOC)c(OCCOC)cc23)c1 [Erlotinib, erlotinib]
- Mortality [1, 18]: 0/5
- BW loss [1, 18]: −0.6 (4) g
- T/C Min ([1]; Erlotinib 50 mg/kg p.o. qd × 5 × 4, on day 17): 0.59 (17)
- Mortality [1, 19]: 0/5
- BW loss [1, 19]: −1.0 (4) g
- T/C Min ([1]; Erlotinib 100 mg/kg p.o. qd × 5 × 4, on day 17): 0.50 (17)
- IC50 (HT29 colon cancer cells; HT-29, HT29, 72 h, single agents and fixed-ratio combination, read-out: IC50): 56300 nM
- IC50 ([7]; Homo sapiens, NCI-H441, 72 h, NCI-H441, 72 h, single agents and fixed-ratio combination, read-out: IC50): 3560 nM
- IC50 [7, 15]: ~1000 nM
- IC50 ([7]; NCI-H441, 72 h, single agents and fixed-ratio combination, read-out: IC50): 3160 nM

- melting point: 108 to 110 °C
SMILES: O=C1NC(=O)[C@@H](c2cn3c4c(cccc24)CCC3)[C@@H]1c1cccc(O)c1 (racemic) [Example 69, (±)-Trans-3-(5,6-dihydro-4H-pyrrolo[3,2,1-ij]quinolin-1-yl)-4-(3-hydroxyphenyl)pyrrolidine-2,5-dione]
